The values that follow are results of earlier work, collected in US7811790B2, “Polymyxin synthetase and gene cluster thereof” (priority 2005, dated 2010).

The conditions of data set [1]: water and organic solvent.
For data set [2] the following is noted: therapeutic use.
In data set [3] the test system is antibiotics-resistant Klebsiella pneumoniae. As to conditions: ventriculis caused by antibiotics-resistant Klebsiella pneumoniae.
For data set [4], the system named is Acinetobacter having resistance against antibiotics. The conditions noted are these: meningitis caused by antibiotic-resistant Acinetobacter.
Data set [5] concerns Pseudomonas aeruginosa and Acinetobacter baumannii exhibiting resistance against the conventional antibiotics. As to conditions: intravenously injected, 60 patients.
Data set [6] concerns Pseudomonas aeruginosa having resistance against almost all antibiotics. As to conditions: 3 osteomyelitis patients.

For polymyxin, the solubility entry in data set [1] was “soluble in both water and an organic solvent”. In addition, in [2], the induced toxicity entry was “severe neurotoxicity and hepatotoxicity”; the side effects result is “serious side effects such as fever, eruption and pain”.
As to polymyxin B, the “effect on gram-positive bacteria” value in the data set on gram-positive bacteria was “no effect”. The “outcome of treatment of ventriculis” value in [3] was “successfully treated”. Moreover, in the data set on fungi, the effect on fungi entry was “no effect”. The “effect on anaerobic bacteria” value with anaerobic bacteria was “no effect”.
Consider polymyxin B sulfate, for which the “killed % of Pseudomonas aeruginosa” value in the data set with Pseudomonas aeruginosa (at the concentration of 0.01 μg/ml) is reported as 88%.
In the case of polymyxin E, the “effect on gram-positive bacteria” value with gram-positive bacteria was “no effect”. The “outcome of treatment of meningitis” value in data set [4] was “successfully treated”. The effect on fungi result in the data set with fungi is recorded as “no effect”. In [5], the patients improved is recorded as 58%. In addition, the “concentration showing lethal effect” value in the data set on Pseudomonas aeruginosa (organism not restated in the sentence, follows the Pseudomonas aeruginosa sentence) is 0.1 µg/mL. Also, the “effect on anaerobic bacteria” value in the data set on anaerobic bacteria is “no effect”. Besides, the “outcome of treatment of osteomyelitis” value in data set [6] was “improved”.
